This is an account of results in patent US11578041B2, “Crystals of hydroxychloroquine sulfate” (Genovate Biotechnology Co. Ltd., priority 2020, dated 2023).

A word on the Solubility: it is the dissolved amount per volume that the medium holds. A high value points to much dissolved substance.

The conditions of data set [1]: animal study; cited from earlier work.
Data set [2] relates to Rat Pleurisy Macrophage Model. The following applies: compared with (R)-(-)-isomer; cited from earlier work.
The nature of data set [3]: Hygroscopicity by dynamic vapor sorption analysis. It is filed as physicochemical. The following applies: for RH at which moisture is adsorbed (adsorption curve) / moisture content: 25° C.; for RH at which moisture is adsorbed (adsorption curve): 5% RH increase per step from 0 to 95% RH; for moisture content: at 95% RH; for hygroscopicity compared with the amorphous form: overall conclusion. The method, then:
Type A crystal, type B crystal, and an amorphous form of (S)-(+)-hydroxychloroquine sulfate were subjected to dynamic vapor sorption analysis to compare their hygroscopicity using a VTI-SA vapor sorption analyzer from TA Instruments (_New Castle, Del., USA). Each was exposed to a series of relative-humidity (“RH”)-change steps at 25° C., i.e, a 5% RH increase per step from 0 to 95% RH and then a 5% RH decrease per step from 95% to 5% RH.

The nature of data set [4]: Stability of crystal stirred in solvents, solid analysed by XRPD and chiral HPLC. The following applies: room temperature, 1 day. It is filed as physicochemical. The method, then:
Further, the stability of type A crystal was determined by stirring the crystal (10 mg) in each of nine solvent (0.5 mL) at room temperature for 1 day. For the nine solvents, see Table 6 below. The resulting solid was analyzed by XRPD and chiral HPLC containing a chiral column of DAICEL CHIRALCEL OD-H, 250×4.6 mm, 5 μm.

A short description of data set [5]: Thermal stability by Variable Temperature PXRD under nitrogen. In kind it is physicochemical. The method, then:
The stability of type A crystal was also determined by heating the crystal to 30° C., 80° C., 130° C., 160° C., 180° C., and 210° C. under nitrogen using the Variable Temperature PXRD technique. […] Only when the temperature reached 80° C., 160° C. and 210° C., it was converted to type B, C, and D crystals, respectively.

Data set [6] can be described thus: Solubility test in 16 solvents by stepwise solvent addition. It is filed as physicochemical.

Consider `CCN(CCO)CCC[C@H](C)Nc1ccnc2cc(Cl)ccc12.O=S(=O)(O)O` (single isomer, unassigned) [(S)-(+)-isomer], for which the “accumulation in ocular tissues compared with the (R)-(-)-isomer” value in data set [1] is reported as “much less”. Also, the “more efficacious than the (R)-(-)-isomer” value in data set [2] is on record as 70%.

`CCN(CCO)CCC[C@H](C)Nc1ccnc2cc(Cl)ccc12.O=S(=O)(O)O` [amorphous form, (S)-(+)-hydroxychloroquine sulfate, reference compound]: in data set [3], the “RH at which moisture is adsorbed (adsorption curve)” value (“RH at which moisture is adsorbed” for short) came out at 25 % RH and the moisture content is on record as 51%. Besides, the “susceptibility to environment (desorption curve)” value in data set [3] (compared with type A and type B crystals) was “much more susceptible to an environment”.

On to `CCN(CCO)CCC[C@H](C)Nc1ccnc2cc(Cl)ccc12.O=S(=O)(O)O` [type A crystal, (S)-(+)-hydroxychloroquine sulfate], for which the Crystal change entry in data set [4] (Acetone), in data set [4] (Acetonitrile), in data set [4] (Dichloromethane), in data set [4] (Ethanol), in data set [4] (Ethanol/water (9/1)) and in data set [4] (Ethyl acetate) was “Not found” in each case. The values for the Crystal change entry in data set [4] (Isopropyl acetate), in data set [4] (Methanol) and in data set [4] (Tetrahydrofuran) were “Not found”, “Clear solution” and “Not found”, respectively. Moreover, the “ee of resulting solid” value in data set [4] (Acetone) is recorded as 95.4%; in data set [4] (Acetonitrile), 95.6%; in data set [4] (Dichloromethane), 95.8%; in data set [4] (Ethanol), 96.7%; in data set [4] (Ethanol/water (9/1), starting ee 96.2%), 99.2%; in data set [4] (Ethyl acetate), 88.8%. Also, the “ee of resulting solid” value in data set [4] (Isopropyl acetate) is reported as 95.5%; in data set [4] (Tetrahydrofuran), 95.3%. Besides, the “stability in the test solvents (summary)” value in data set [4] (nine solvents) is recorded as “unexpectedly stable in all test solvents except in methanol”. The “stability at room temperature” value in data set [5] (Variable Temperature PXRD under nitrogen) is reported as “highly stable”. The “temperature at which converted to type B crystal” value in data set [5] (heating under nitrogen) is 80 °C. Besides, in data set [5] (heating under nitrogen), the “temperature at which converted to type C crystal” value is 160 °C. Moreover, the “temperature at which converted to type D crystal” value in data set [5] (heating under nitrogen) came to 210 °C. Besides, the “RH at which moisture is adsorbed” value in data set [3] is greater than 85 % RH. Besides, the moisture content in data set [3] amounted to 19%. For the same molecule, in data set [3], the “hygroscopicity compared with the amorphous form” value is “less hygroscopic”.

Consider `CCN(CCO)CCC[C@H](C)Nc1ccnc2cc(Cl)ccc12.O=S(=O)(O)O` [type B crystal, (S)-(+)-hydroxychloroquine sulfate], for which, in data set [3], the “RH at which moisture is adsorbed” value is “higher than 60 % RH”, the moisture content is given as 30% and the “hygroscopicity compared with the amorphous form” value is on record as “less hygroscopic”.

Consider “(±)-hydroxychloroquine [salt-free form of (±)-hydroxychloroquine]”, for which the Solubility is greater than 38 mg/mL in data set [6] (2-Methyl-tetrahydrofuran); greater than 38 mg/mL in data set [6] (Acetone); 6.7 to 20 mg/mL in data set [6] (Acetonitrile); greater than 40 mg/mL in data set [6] (Dichloromethane); greater than 40 mg/mL in data set [6] (Dioxane); greater than 42 mg/mL in data set [6] (Ethanol). Also, the Solubility was 6.7 to 20 mg/mL in data set [6] (Ethyl acetate); greater than 38 mg/mL in data set [6] (Isopropanol); 6.7 to 20 mg/mL in data set [6] (Isopropyl acetate); greater than 40 mg/mL in data set [6] (Methanol); greater than 42 mg/mL in data set [6] (Methyl isobutyl ketone); less than 2.1 mg/mL in data set [6] (Methyl tert-butyl ether). The Solubility was greater than 38 mg/mL in data set [6] (Tetrahydrofuran), less than 2.0 mg/mL in data set [6] (Toluene), less than 1.9 mg/mL in data set [6] (Water) and less than 2.1 mg/mL in data set [6] (n-Heptane).
